This passage reports MIC results from patent publication US4156724A, “N-acylamino-alpha-arylacetamido cephalosporins and antibacterial compositions and methods containing them” (Sumitomo Chemical Company, Limited, priority 1974, dated 1979).

What all share (format): cell-based
Assay [1] has as its system Klebsiella pneumoniae 602. The experiment in a line: Minimum Inhibitory Concentration, Klebsiella pneumoniae 602. The following applies: Klebsiella pneumoniae, 602, Klebsiella pneumoniae 602; read-out: Minimum Inhibitory Concentration. As to the method: (§1) anti-microbial activity tests were carried out on the compounds obtained in the Examples.
The subject of another assay is Escherichia coli NIHJ. The experiment in a line: Minimum Inhibitory Concentration, Escherichia coli NIHJ. The following applies: Escherichia coli NIHJ; read-out: Minimum Inhibitory Concentration. As to the method: as §1
A further assay concerns Serratia No. 72. The experiment in a line: Minimum Inhibitory Concentration, Serratia No. 72. On the procedure: as §1
Assay [2] deals with Staphylococcus aureus FS 289. The experiment in a line: Minimum Inhibitory Concentration, Staphylococcus aureus FS 289. The following applies: FS289; Staphylococcus aureus FS 289, strain resistant to penicillin; read-out: Minimum Inhibitory Concentration. On the procedure:
as §1
*Staphylococcus aureus FS 289: strain resistant to penicillin

Assay [3] has as its system Pseudomonas aeruginosa 104. Description: Minimum Inhibitory Concentration, Pseudomonas aeruginosa 104. The following applies: Pseudomonas aeruginosa 104; read-out: Minimum Inhibitory Concentration. On the procedure:
as §1

Assay [4] has as its system Staphylococcus aureus 209 P. The experiment in a line: Minimum Inhibitory Concentration, Staphylococcus aureus 209 P. The following applies: Staphylococcus aureus 209 P; read-out: Minimum Inhibitory Concentration. As to the method:
as §1

The next assay concerns Proteus vulgaris HX 19. The experiment in a line: Minimum Inhibitory Concentration, Proteus vulgaris HX 19. Conditions: HX19; Proteus vulgaris HX 19; read-out: Minimum Inhibitory Concentration. On the procedure: as §1
The subject of assay [5] is Enterobacter aerogeneus No. 75. The experiment in a line: Minimum Inhibitory Concentration, Enterobacter aerogeneus No. 75. The following applies: Enterobacter aerogeneus No. 75; read-out: Minimum Inhibitory Concentration. As to the method:
as §1

Converted amounts (≈) assume the structure as drawn.

For the molecule `NC(=O)Nc1ccc([C@@H](NC(=O)c2cnccc2O)C(=O)N[C@@H]2C(=O)N3C(C(=O)O)=C(CSc4cnn[nH]4)CS[C@H]23)cc1` [Example 14], the MIC amounted to 6.25 µg/mL (≈ 9.99 µM) in assay [1]; 6.25 µg/mL (≈ 9.99 µM) with Escherichia coli NIHJ; 50 µg/mL (≈ 79.9 µM) against Serratia No. 72; 6.25 µg/mL (≈ 9.99 µM) in assay [2]; 6.25 µg/mL (≈ 9.99 µM) in assay [3]; 0.39 µg/mL (≈ 0.623 µM) in assay [4]. For the same molecule, the MIC in the assay on Proteus vulgaris HX 19 turned out to be 0.1 µg/mL (≈ 0.16 µM); in assay [5] it was 12.5 µg/mL (≈ 20 µM).
`Cc1nnc(SCC2=C(C(=O)O)N3C(=O)[C@@H](NC(=O)[C@H](NC(=O)c4ccnnc4O)c4cccc(NC(N)=O)c4)[C@H]3SC2)s1` [Example 15]: the MIC in assay [1] is 3.13 µg/mL (≈ 4.76 µM); in the assay with Escherichia coli NIHJ it was 12.5 µg/mL (≈ 19 µM); against Serratia No. 72 it was 50 µg/mL (≈ 76 µM); in assay [2], 6.25 µg/mL (≈ 9.5 µM); in assay [3] it was 6.25 µg/mL (≈ 9.5 µM); in assay [4], 0.39 µg/mL (≈ 0.593 µM). The results for the MIC (with Proteus vulgaris HX 19; in assay [5]) were 0.1 µg/mL (≈ 0.152 µM) and 6.25 µg/mL (≈ 9.5 µM), respectively.
Take `Cc1nnc(SCC2=C(C(=O)O)N3C(=O)[C@@H](NC(=O)[C@H](NC(=O)c4ccnnc4O)c4ccc(NC(N)=O)cc4)[C@H]3SC2)s1` [Example 16]: the MIC in assay [1] worked out at 3.13 µg/mL (≈ 4.76 µM); with Escherichia coli NIHJ, 6.25 µg/mL (≈ 9.5 µM); in the assay on Serratia No. 72, 50 µg/mL (≈ 76 µM); in assay [2] it was 6.25 µg/mL (≈ 9.5 µM); in assay [3] it was 6.25 µg/mL (≈ 9.5 µM); in assay [4], 0.39 µg/mL (≈ 0.593 µM). Further, the MIC with Proteus vulgaris HX 19 was determined as 0.2 µg/mL (≈ 0.304 µM); in assay [5], 6.25 µg/mL (≈ 9.5 µM).
Take `Cn1nnnc1SCC1=C(C(=O)O)N2C(=O)[C@@H](NC(=O)[C@H](NC(=O)c3ccnnc3O)c3ccc(NC(N)=O)cc3)[C@H]2SC1` [Example 17]: the MIC in assay [1] is 3.13 µg/mL (≈ 4.88 µM); in the assay with Escherichia coli NIHJ, 6.25 µg/mL (≈ 9.74 µM); with Serratia No. 72, 50 µg/mL (≈ 77.9 µM); in assay [2], 6.25 µg/mL (≈ 9.74 µM); in assay [3], 6.25 µg/mL (≈ 9.74 µM); in assay [4], 0.39 µg/mL (≈ 0.608 µM). Further, the results for the MIC (in the assay with Proteus vulgaris HX 19; in assay [5]) were 0.1 µg/mL (≈ 0.156 µM) and 12.5 µg/mL (≈ 19.5 µM), respectively.
For `NC(=O)Nc1ccc([C@@H](NC(=O)c2ccnnc2O)C(=O)N[C@@H]2C(=O)N3C(C(=O)O)=C(CSc4cnn[nH]4)CS[C@H]23)cc1` [Example 18], the MIC stood at 6.25 µg/mL (≈ 9.97 µM) in assay [1]; 6.25 µg/mL (≈ 9.97 µM) in the assay with Escherichia coli NIHJ; 50 µg/mL (≈ 79.8 µM) against Serratia No. 72; 6.25 µg/mL (≈ 9.97 µM) in assay [2]; 6.25 µg/mL (≈ 9.97 µM) in assay [3]; 0.39 µg/mL (≈ 0.622 µM) in assay [4]. Also, the MIC in the assay on Proteus vulgaris HX 19 amounted to 0.2 µg/mL (≈ 0.319 µM); in assay [5], 12.5 µg/mL (≈ 19.9 µM).
As for `NC(=O)Nc1ccc([C@@H](NC(=O)c2cncnc2O)C(=O)N[C@@H]2C(=O)N3C(C(=O)O)=C(CSc4nncs4)CS[C@H]23)cc1` [Example 19], the MIC in assay [1] was determined as 6.25 µg/mL (≈ 9.71 µM); in the assay with Escherichia coli NIHJ, 12.5 µg/mL (≈ 19.4 µM); in the assay with Serratia No. 72, 50 µg/mL (≈ 77.7 µM); in assay [2], 6.25 µg/mL (≈ 9.71 µM); in assay [3] it was 12.5 µg/mL (≈ 19.4 µM); in assay [4], 0.39 µg/mL (≈ 0.606 µM). For the same molecule, the MIC in the assay on Proteus vulgaris HX 19 came to 0.2 µg/mL (≈ 0.311 µM); in assay [5], 25 µg/mL (≈ 38.8 µM).
Turning to `Cc1nnc(SCC2=C(C(=O)O)N3C(=O)[C@@H](NC(=O)[C@H](NC(=O)c4cnc5cccnc5c4O)c4ccc(NC(N)=O)cc4)[C@H]3SC2)s1` [Example 20], the MIC turned out to be 1.56 µg/mL (≈ 2.2 µM) in assay [1]; 3.13 µg/mL (≈ 4.42 µM) in the assay on Escherichia coli NIHJ; 12.5 µg/mL (≈ 17.7 µM) against Serratia No. 72; 3.13 µg/mL (≈ 4.42 µM) in assay [2]; 3.13 µg/mL (≈ 4.42 µM) in assay [3]; 0.78 µg/mL (≈ 1.1 µM) in assay [4]. Moreover, the MIC with Proteus vulgaris HX 19 turned out to be 0.1 µg/mL (≈ 0.141 µM); in assay [5], 3.13 µg/mL (≈ 4.42 µM).
In the case of `NC(=O)Nc1ccc([C@@H](NC(=O)c2cnc3cccnc3c2O)C(=O)N[C@@H]2C(=O)N3C(C(=O)O)=C(CSc4nncs4)CS[C@H]23)cc1` [Example 21], the MIC in assay [1] was 1.56 µg/mL (≈ 2.25 µM); with Escherichia coli NIHJ, 3.13 µg/mL (≈ 4.51 µM); in the assay on Serratia No. 72, 12.5 µg/mL (≈ 18 µM); in assay [2] it was 3.13 µg/mL (≈ 4.51 µM); in assay [3], 3.13 µg/mL (≈ 4.51 µM); in assay [4], 0.78 µg/mL (≈ 1.12 µM). The results for the MIC (in the assay on Proteus vulgaris HX 19; in assay [5]) were 0.2 µg/mL (≈ 0.288 µM) and 3.13 µg/mL (≈ 4.51 µM), respectively.
